Test results: ChEMBL document CHEMBL1201862, “PubChem BioAssay data set” (2004)
Activity calls are given as the source filed them.

Legend:
[1] = HEp-2 cell cytotoxicity, dose response, cytotoxicity control for RSV inhibitor project, HTS (AID 2410); assay type: functional; details: human respiratory syncytial virus
[2] = system: BJ; assay: cytotoxicity toward BJ-TERT fibroblasts, dose response, cell-based, RAS-independent, luminescence (AID 1933); assay type: functional; details: Homo sapiens
[3] = system: BJ; assay: cells; assay type: functional, cell-based; details: Homo sapiens
[4] = inhibitors of intracellular T. cruzi replication, confirmation, NIH3T3 host cells, beta-gal luminescence (AID 2044); assay type: functional, cell-based;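 note: intracellular parasites grown in NIH/3T3 mouse fibroblasts as host cells; luminescent beta-galactosidase reporter signal from transgenic T. cruzi replicating inside host cells; inhibitors lower the luminescence signal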
[5] = cytotoxicity toward NIH3T3 fibroblasts, dose response, counter-screen, cell-based, ATP luminescence, mouse fibroblasts (AID 2010); assay type: functional;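 note: cells exposed to compound for about 90 hours before reading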
[6] = system: BJ; assay: cytotoxicity toward BJ-TERT-LT-ST fibroblasts, dose response, cell-based, RAS-independent, luminescence (AID 1935); assay type: functional; details: Homo sapiens;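 note: BJ fibroblasts immortalized with TERT plus LT and ST oncogenes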
[7] = cytotoxicity toward DRD oncogenic fibroblasts, dose response, cell-based, non-viral oncogenic, luminescence (AID 1934); assay type: functional; details: Homo sapiens
[8] = molecular target: T1, Type-1 angiotensin II receptor (Homo sapiens, UniProt P30556); assay: AT1 receptor agonists, dose response, selectivity assay for APJ receptor agonist project, cell-based, uHTS hits (AID 488865); assay type: functional;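 note: beta-arrestin recruitment to AT1 measured by enzyme fragment complementation luminescence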
T1 sequence (P30556 whole entry): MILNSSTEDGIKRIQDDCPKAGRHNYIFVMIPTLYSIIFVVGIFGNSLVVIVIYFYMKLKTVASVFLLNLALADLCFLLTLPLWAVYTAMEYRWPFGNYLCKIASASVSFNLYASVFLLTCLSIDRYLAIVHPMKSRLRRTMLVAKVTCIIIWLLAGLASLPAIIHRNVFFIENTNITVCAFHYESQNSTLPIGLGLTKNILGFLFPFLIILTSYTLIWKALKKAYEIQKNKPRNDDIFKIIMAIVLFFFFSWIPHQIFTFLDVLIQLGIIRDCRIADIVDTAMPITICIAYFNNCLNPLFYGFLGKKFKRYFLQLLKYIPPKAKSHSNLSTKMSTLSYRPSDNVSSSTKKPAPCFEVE

[9] = molecular target: Melanocortin receptor 4 (Homo sapiens, UniProt P32245); assay type: functional, cell-based;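 note: Cell-based assay with luminescence read-out, confirmatory dose-response testing for agonist activity of biased ligands at MC4R; human U2OS cells with tagged receptor and beta-arrestin; potency of agonists that increase receptor coupling to beta-arrestin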
[10] = cells
[11] = molecular target: T2, Ubiquitin-conjugating enzyme E2 N (Homo sapiens, UniProt P61088); assay type: functional;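 note: Dose-response confirmation in a TR-FRET assay detecting UBC13-driven polyubiquitin chain formation, inhibition measured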
T2 sequence (P61088 whole entry): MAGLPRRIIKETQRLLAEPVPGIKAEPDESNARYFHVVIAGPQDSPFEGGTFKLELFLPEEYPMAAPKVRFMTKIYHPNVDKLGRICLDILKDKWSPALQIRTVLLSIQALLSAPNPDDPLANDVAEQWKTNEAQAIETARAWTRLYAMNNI

[12] = molecular target: Alkaline phosphatase, placental type (Homo sapiens, UniProt P05187); assay: PLAP enzyme inhibitors, confirmation, biochemical, luminescence (AID 1512); assay type: functional
[13] = cells; assay type: functional
[14] = molecular target: DNA dC->dU-editing enzyme APOBEC-3A (Homo sapiens, UniProt P31941); assay: APOBEC3A DNA deaminase inhibitors, dose response, biochemical (AID 504722); assay type: functional
[15] = molecular target: Glucose-6-phosphate 1-dehydrogenase (Homo sapiens, UniProt P11413); assay: human G6PD enzyme inhibitors, dose response, selectivity assay for P. falciparum G6PD inhibitor project, biochemical, fluorescence (AID 504792); assay type: functional
[16] = molecular target: DNA dC->dU-editing enzyme APOBEC-3G (Homo sapiens, UniProt Q9HC16); assay: Dose Response confirmation of small molecule APOBEC3G DNA Deaminase Inhibitors via a fluorescence-based single-stranded DNA deaminase assay. [Related pubchem assays (depositor defined):AID493012, AID493028]; assay type: functional
[17] = molecular target: T3, Voltage-gated N-type calcium channel alpha-1B subunit/Amyloid beta A4 precursor protein-binding family A member 1 (Homo sapiens, UniProt Q00975+Q02410); assay: disruptors of Mint-PDZ/N-type channel peptide interaction – biochemical, HTRF, set 2, SAR follow-up (AID 434980); assay type: functional
[18] = molecular target: T3, Voltage-gated N-type calcium channel alpha-1B subunit/Amyloid beta A4 precursor protein-binding family A member 1; assay: disruptors of Mint-PDZ/N-type channel peptide interaction – biochemical, HTRF, SAR follow-up (AID 2489); assay type: functional
[19] = molecular target: T4, Coagulation factor XII (Homo sapiens, UniProt P00748); assay type: functional;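 note: activated factor XIIa alpha cleaving a fluorogenic AMC peptide substrate; inhibitor potency from loss of enzyme activity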
T4 sequence (P00748 whole entry): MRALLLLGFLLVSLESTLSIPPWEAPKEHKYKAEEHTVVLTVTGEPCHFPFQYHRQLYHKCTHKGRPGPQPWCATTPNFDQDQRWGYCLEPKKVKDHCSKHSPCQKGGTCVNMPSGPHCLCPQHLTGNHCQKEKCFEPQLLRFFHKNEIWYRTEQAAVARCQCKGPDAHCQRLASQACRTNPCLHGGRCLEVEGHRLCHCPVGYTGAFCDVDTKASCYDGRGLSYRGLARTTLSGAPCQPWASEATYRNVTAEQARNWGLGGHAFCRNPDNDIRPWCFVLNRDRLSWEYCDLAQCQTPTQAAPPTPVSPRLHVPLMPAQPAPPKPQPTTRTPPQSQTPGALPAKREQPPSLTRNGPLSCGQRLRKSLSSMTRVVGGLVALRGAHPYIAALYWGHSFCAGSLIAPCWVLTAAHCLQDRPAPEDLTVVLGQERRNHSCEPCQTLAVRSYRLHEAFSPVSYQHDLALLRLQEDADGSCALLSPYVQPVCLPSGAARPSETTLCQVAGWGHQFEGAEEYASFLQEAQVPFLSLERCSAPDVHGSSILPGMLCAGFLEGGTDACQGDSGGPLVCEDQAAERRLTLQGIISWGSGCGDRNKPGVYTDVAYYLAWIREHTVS

[20] = molecular target: DNA damage-inducible transcript 3 protein (Mus musculus, UniProt P35639); assay type: functional, Cricetulus griseus
[21] = molecular target: T3, Voltage-gated N-type calcium channel alpha-1B subunit/Amyloid beta A4 precursor protein-binding family A member 1; assay type: protein assay
[22] = molecular target: T3, Voltage-gated N-type calcium channel alpha-1B subunit/Amyloid beta A4 precursor protein-binding family A member 1; assay type: protein assay; remark: listed apart in the source

T3 sequence (Q00975 whole entry): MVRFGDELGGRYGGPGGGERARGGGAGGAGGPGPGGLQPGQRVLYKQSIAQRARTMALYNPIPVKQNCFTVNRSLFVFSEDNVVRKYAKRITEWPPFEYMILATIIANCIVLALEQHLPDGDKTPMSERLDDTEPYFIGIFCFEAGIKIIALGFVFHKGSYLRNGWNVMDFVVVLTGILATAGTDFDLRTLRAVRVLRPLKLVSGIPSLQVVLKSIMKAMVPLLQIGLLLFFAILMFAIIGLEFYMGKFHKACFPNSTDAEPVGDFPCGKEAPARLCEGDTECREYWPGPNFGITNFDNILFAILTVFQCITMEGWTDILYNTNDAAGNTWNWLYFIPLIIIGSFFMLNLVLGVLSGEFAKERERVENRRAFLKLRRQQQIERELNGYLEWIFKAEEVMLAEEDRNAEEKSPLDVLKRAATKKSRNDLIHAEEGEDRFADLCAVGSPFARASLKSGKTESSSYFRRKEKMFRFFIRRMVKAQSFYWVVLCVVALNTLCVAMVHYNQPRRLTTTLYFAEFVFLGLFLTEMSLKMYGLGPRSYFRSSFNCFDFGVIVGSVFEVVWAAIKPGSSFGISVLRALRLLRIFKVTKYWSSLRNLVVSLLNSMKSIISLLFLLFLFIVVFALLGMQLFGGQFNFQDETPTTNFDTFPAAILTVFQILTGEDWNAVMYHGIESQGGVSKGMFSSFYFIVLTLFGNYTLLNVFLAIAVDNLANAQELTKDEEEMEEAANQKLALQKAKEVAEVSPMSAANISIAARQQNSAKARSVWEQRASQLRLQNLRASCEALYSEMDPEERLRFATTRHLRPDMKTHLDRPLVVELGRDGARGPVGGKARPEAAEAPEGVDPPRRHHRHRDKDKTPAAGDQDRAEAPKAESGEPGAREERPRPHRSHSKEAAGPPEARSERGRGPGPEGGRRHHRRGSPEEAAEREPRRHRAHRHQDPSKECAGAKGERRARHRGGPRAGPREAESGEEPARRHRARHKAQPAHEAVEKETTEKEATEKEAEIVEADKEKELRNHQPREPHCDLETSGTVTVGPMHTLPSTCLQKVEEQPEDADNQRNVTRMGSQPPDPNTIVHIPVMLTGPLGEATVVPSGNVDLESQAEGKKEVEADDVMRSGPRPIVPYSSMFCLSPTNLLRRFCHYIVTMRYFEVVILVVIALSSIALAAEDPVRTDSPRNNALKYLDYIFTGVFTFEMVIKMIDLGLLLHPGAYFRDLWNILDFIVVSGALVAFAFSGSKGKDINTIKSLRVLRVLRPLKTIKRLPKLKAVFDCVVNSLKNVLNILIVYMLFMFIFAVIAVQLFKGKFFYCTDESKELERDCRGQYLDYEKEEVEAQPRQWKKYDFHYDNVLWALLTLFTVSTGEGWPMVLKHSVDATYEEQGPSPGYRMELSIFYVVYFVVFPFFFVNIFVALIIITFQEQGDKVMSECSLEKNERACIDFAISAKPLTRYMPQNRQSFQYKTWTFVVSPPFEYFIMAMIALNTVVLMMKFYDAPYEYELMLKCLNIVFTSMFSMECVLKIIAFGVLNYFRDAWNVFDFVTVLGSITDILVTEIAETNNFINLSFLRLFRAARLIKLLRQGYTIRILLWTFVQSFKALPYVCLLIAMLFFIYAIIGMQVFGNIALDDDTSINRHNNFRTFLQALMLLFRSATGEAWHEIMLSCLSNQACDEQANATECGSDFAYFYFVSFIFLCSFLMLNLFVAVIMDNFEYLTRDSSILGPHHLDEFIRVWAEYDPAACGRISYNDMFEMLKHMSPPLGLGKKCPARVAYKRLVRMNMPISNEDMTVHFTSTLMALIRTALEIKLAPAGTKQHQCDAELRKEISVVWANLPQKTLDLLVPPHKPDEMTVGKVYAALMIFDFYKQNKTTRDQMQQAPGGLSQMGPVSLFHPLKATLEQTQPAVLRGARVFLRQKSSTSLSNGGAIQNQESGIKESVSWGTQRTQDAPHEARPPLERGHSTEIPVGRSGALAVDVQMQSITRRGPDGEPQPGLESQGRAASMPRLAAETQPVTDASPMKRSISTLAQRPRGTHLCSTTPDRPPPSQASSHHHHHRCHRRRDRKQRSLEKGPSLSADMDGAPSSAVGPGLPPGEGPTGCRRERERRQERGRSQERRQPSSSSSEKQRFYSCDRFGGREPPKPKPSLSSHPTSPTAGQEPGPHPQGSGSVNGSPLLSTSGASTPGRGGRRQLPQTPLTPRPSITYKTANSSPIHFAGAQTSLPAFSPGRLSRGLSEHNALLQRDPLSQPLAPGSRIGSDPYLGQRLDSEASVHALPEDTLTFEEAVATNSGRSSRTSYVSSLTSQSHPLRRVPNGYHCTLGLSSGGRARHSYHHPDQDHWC
T3 sequence (Q02410 whole entry): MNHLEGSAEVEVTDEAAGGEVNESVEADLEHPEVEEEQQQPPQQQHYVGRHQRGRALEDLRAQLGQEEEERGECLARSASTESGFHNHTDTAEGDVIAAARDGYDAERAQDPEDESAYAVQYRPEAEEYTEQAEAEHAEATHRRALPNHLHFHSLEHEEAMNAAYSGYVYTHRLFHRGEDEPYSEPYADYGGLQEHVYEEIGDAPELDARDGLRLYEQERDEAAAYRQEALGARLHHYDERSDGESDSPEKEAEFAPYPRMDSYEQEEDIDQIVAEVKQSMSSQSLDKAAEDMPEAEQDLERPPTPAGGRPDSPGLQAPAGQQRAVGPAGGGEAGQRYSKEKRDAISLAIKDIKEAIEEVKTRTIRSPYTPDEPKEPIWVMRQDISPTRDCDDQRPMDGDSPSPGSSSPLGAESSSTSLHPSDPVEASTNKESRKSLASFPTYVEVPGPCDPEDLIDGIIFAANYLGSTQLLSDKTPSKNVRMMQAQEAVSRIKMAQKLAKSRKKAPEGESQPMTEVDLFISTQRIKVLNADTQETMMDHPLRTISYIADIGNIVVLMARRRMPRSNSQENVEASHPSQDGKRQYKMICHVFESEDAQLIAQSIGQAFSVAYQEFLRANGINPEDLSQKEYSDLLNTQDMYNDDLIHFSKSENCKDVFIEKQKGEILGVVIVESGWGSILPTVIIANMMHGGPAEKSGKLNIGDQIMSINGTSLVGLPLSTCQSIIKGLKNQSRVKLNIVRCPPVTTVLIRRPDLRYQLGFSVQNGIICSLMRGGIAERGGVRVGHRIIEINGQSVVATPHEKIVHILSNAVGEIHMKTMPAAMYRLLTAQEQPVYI
Chain of Alkaline phosphatase, placental type (P05187 whole entry): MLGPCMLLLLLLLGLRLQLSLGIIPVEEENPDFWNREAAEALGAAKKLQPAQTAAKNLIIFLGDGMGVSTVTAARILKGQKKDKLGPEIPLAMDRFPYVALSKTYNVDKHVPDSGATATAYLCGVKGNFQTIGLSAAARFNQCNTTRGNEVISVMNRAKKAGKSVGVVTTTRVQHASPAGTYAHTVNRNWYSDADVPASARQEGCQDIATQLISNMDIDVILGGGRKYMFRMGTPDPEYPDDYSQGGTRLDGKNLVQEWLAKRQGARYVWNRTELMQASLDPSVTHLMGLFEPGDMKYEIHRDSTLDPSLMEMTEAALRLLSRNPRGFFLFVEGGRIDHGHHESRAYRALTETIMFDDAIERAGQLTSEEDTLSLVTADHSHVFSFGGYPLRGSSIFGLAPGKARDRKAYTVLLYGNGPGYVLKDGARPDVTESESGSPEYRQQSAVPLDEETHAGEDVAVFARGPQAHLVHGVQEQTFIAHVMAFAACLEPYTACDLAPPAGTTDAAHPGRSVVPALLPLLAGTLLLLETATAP
Chain of DNA dC->dU-editing enzyme APOBEC-3A (P31941 whole entry): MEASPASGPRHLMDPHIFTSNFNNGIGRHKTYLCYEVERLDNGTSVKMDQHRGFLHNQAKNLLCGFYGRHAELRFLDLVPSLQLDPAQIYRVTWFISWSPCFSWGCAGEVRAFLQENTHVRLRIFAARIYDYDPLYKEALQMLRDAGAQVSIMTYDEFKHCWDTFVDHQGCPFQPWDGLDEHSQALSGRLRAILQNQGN
Chain of Melanocortin receptor 4 (P32245 whole entry): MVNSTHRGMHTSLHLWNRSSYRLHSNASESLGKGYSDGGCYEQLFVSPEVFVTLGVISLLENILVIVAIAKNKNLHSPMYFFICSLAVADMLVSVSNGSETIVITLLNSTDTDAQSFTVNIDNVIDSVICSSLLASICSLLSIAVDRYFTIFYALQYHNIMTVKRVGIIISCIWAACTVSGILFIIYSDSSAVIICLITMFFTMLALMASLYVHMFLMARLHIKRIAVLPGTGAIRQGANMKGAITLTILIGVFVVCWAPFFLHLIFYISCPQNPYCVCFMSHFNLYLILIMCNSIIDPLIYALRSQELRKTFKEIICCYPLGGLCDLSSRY
Chain of DNA damage-inducible transcript 3 protein (P35639 whole entry): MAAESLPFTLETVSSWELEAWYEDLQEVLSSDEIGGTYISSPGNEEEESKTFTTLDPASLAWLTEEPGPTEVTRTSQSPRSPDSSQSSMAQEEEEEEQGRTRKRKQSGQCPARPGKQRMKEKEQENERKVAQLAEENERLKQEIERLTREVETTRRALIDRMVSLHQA
Chain of DNA dC->dU-editing enzyme APOBEC-3G (Q9HC16 whole entry): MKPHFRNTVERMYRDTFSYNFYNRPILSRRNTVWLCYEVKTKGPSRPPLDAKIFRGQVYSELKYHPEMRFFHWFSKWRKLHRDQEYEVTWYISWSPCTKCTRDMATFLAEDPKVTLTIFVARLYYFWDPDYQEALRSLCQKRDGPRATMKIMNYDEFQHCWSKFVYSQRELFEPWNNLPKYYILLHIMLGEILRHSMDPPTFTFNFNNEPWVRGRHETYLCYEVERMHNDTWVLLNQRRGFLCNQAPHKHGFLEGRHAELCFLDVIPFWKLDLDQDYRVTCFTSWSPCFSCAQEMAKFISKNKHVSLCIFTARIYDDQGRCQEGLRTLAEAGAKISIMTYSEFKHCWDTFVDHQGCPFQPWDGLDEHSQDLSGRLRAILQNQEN

## CN(C)CCCN(C(=O)c1cc2cc([N+](=O)[O-])ccc2s1)c1nc2cc3c(cc2s1)OCCO3
[1]
  CC50: 24.5 µM (active)
[2]
  EC50: 1.65 µM (active)
[3]
  EC50: 7.44 µM (active)
[4]
  EC50: < 0.1 µM (active)
[5]
  EC50: 6.94 µM (active)
[6]
  EC50: 2.89 µM (inconclusive)
[7]
  EC50: 2.96 µM (inconclusive)
[8]
  EC50: > 100 µM (inactive)
[9]
  EC50: > 89.2 µM (inactive)
[10]
  EC50: 0.148 µM (active)

## COc1ccc(OCC(=O)NNC(=O)c2ccccn2)cc1
[11]
  IC50: > 20 µM (inactive)
[12]
  IC50: > 100 µM (inactive)
[13]
  IC50: 9.61 µM (active)

## Nn1c(SCC(=O)Nc2cccnc2Cl)nnc1-c1ccccc1
[14]
  IC50: > 100 µM (inactive)
[15]
  IC50: > 80 µM (inactive)
[16]
  IC50: 13.3 µM (active)

## Cc1ccc(N2C(=O)C3C(C2=O)C2(C)C=CC3(C)O2)cc1 (stereo not drawn)
[17]
  IC50: > 56.8 µM (inactive)
[18]
  IC50: 11.5 µM (active)

## O=C1CC(N2CCN(Cc3ccc(Cl)cc3)CC2)C(=O)N1CCc1ccccc1 (stereo not drawn)
[19]
  IC50: > 50 µM (inactive)

## COc1ccc2nc(O)c(C(c3nnnn3CC3CCCO3)N3CCc4ccccc4C3)cc2c1 (stereo not drawn)
[8]
  EC50: > 100 µM (inactive)

## CCC(CC)c1nnc(NC(=O)c2c(C)nn(Cc3ccccc3Cl)c2C)s1
[20]
  Absolute IC50 (CHOP): < 10 µM

## COc1cccc2cc(C(=O)Nc3ccc(S(=O)(=O)NCC4CCCO4)cc3)c(=O)oc12 (stereo not drawn)
[21]
  IC50: > 56.8 µM (not active)
[22]
  IC50: > 50 µM (inactive)
